Measured values reported in patent US20150189883A1, “METHODS OF CONTROLLING INSECTS” (Syngenta Participations AG, priority 2012, published 2015).
Where two headings read alike, the source gives them in different places.

What was measured:
[1] = test system: Chilo suppressalis (Rice Stem Borer); experiment: Chilo suppressalis (Rice Stem Borer) treated rice leaf petri dish test, mortality; format: in vivo; details: read-out: Control/%
Procedure: Nephotettix virescens (Green Leafhopper) Rice seedlings are treated with the diluted test solutions in a spray chamber. After drying, plants are infested with 10 N5 nymphs (3 replicates). 5 days after the treatment samples are checked for mortality. […] After drying, plants are infested with 20 N3 nymphs (2 replicates). 6-12 days after the treatment samples are checked for mortality. […] 10 larvae (L2) are added and the dish is covered with a filter tissue and a plastic lid. 5 days after treatment the percentage mortality is assessed (3 replicates per concentration).
The data in the comparative Examples below were obtained using the methods described above.

[2] = test system: Nilaparvata lugens (Brown Plant Hopper); experiment: Nilaparvata lugens (Brown Plant Hopper) rice seedling spray test, mortality; format: in vivo; details: read-out: Control/%
[3] = Chilo suppressalis (Rice stem borer), application rate 0.2 ppm
[4] = Chilo suppressalis (Rice stem borer), application rate 0.8 ppm
[5] = Nilaparvata lugens (Brown plant hopper), application rate 25 ppm
[6] = Nilaparvata lugens (Brown plant hopper), application rate 50 ppm

Structure (SMILES) | pest or weed control at 0.2 ppm ([1]; Chilo suppressalis) [%] | pest or weed control at 0.8 ppm ([1]; Chilo suppressalis) [%] | pest or weed control at 25 ppm ([2]; Nilaparvata lugens) [%] | pest or weed control at 50 ppm ([2]; Nilaparvata lugens) [%] | further results
Cc1cc(C2=NOC(c3cc(Cl)cc(Cl)c3)(C(F)(F)F)C2)ccc1C(=O)NC1CSC1 (stereo not shown) [Compound of the invention] | 93 | 100 | – | – | –
Cc1cc(C2=NOC(c3cc(Cl)cc(Cl)c3)(C(F)(F)F)C2)ccc1C(=O)NC1(C)CSC1 (stereo not shown) [Reference compound, reference compound] | 30 | 40 | – | – | –
Cc1cc(C2=NCC(c3cc(Cl)cc(Cl)c3)(C(F)(F)F)C2)ccc1C(=O)NC1CSC1 (stereo not shown) [drawing 21] | – | – | – | – | pest or weed control at 0.2 ppm [1, 3]: 40%; pest or weed control at 0.8 ppm [1, 4]: 90%
Cc1cc(C2=NCC(c3cc(Cl)cc(Cl)c3)(C(F)(F)F)C2)ccc1C(=O)NC1(C)CSC1 (stereo not shown) [drawing 22] | – | – | – | – | pest or weed control at 0.2 ppm [1, 3]: 30%; pest or weed control at 0.8 ppm [1, 4]: 60%
Cc1cc(C2=NCC(c3cc(Cl)cc(Cl)c3)(C(F)(F)F)C2)ccc1C(=O)NC1CS(=O)(=O)C1 (stereo not shown) [drawing 23] | – | – | – | – | pest or weed control at 0.2 ppm [1, 3]: 97%; pest or weed control at 0.8 ppm [1, 4]: 100%
Cc1cc(C2=NCC(c3cc(Cl)cc(Cl)c3)(C(F)(F)F)C2)ccc1C(=O)NC1(C)CS(=O)(=O)C1 (stereo not shown) [drawing 24] | – | – | – | – | pest or weed control at 0.2 ppm [1, 3]: 23%; pest or weed control at 0.8 ppm [1, 4]: 60%
Cc1cc(C2=NOC(c3cc(Cl)c(Br)c(Cl)c3)(C(F)(F)F)C2)ccc1C(=O)NC1CSC1 (stereo not shown) [drawing 25] | 97 | 100 | – | – | –
Cc1cc(C2=NOC(c3cc(Cl)c(Br)c(Cl)c3)(C(F)(F)F)C2)ccc1C(=O)NC1(C)CSC1 (stereo not shown) [drawing 26] | 40 | 80 | – | – | –
O=C(NC1CSC1)c1ccc(C2=NO[C@@](c3cc(Cl)cc(Cl)c3)(C(F)(F)F)C2)cc1Cl [drawing 27] | 93 | 100 | – | – | –
CC1(NC(=O)c2ccc(C3=NO[C@@](c4cc(Cl)cc(Cl)c4)(C(F)(F)F)C3)cc2Cl)CSC1 [drawing 28] | 80 | 97 | – | – | –
Cc1cc(C2=NOC(c3cc(Cl)cc(Cl)c3)(C(F)(F)F)C2)ccc1C(=O)NC1CSC1 (stereo not shown) [drawing 29] | – | – | 44 | 79 | –
Cc1cc(C2=NOC(c3cc(Cl)cc(Cl)c3)(C(F)(F)F)C2)ccc1C(=O)NC1(C)CSC1 (stereo not shown) [drawing 30] | – | – | 0 | 0 | –
Cc1cc(C2=NCC(c3cc(Cl)cc(Cl)c3)(C(F)(F)F)C2)ccc1C(=O)NC1CSC1 (stereo not shown) [drawing 31] | – | – | – | – | pest or weed control at 25 ppm [2, 5]: 100%; pest or weed control at 50 ppm [2, 6]: 100%
Cc1cc(C2=NCC(c3cc(Cl)cc(Cl)c3)(C(F)(F)F)C2)ccc1C(=O)NC1(C)CSC1 (stereo not shown) [drawing 32] | – | – | – | – | pest or weed control at 25 ppm [2, 5]: 0%; pest or weed control at 50 ppm [2, 6]: 0%
Cc1cc(C2=NCC(c3cc(Cl)cc(Cl)c3)(C(F)(F)F)C2)ccc1C(=O)NC1CS(=O)(=O)C1 (stereo not shown) [drawing 33] | – | – | – | – | pest or weed control at 25 ppm [2, 5]: 93%; pest or weed control at 50 ppm [2, 6]: 100%
Cc1cc(C2=NCC(c3cc(Cl)cc(Cl)c3)(C(F)(F)F)C2)ccc1C(=O)NC1(C)CS(=O)(=O)C1 (stereo not shown) [drawing 34] | – | – | – | – | pest or weed control at 25 ppm [2, 5]: 0%; pest or weed control at 50 ppm [2, 6]: 0%
Cc1cc(C2=NOC(c3cc(Cl)c(Br)c(Cl)c3)(C(F)(F)F)C2)ccc1C(=O)NC1CSC1 (stereo not shown) [drawing 35] | – | – | 30 | 80 | –
Cc1cc(C2=NOC(c3cc(Cl)c(Br)c(Cl)c3)(C(F)(F)F)C2)ccc1C(=O)NC1(C)CSC1 (stereo not shown) [drawing 36] | – | – | 0 | 0 | –
O=C(NC1CSC1)c1ccc(C2=NO[C@@](c3cc(Cl)cc(Cl)c3)(C(F)(F)F)C2)cc1Cl [drawing 37] | – | – | 15 | 45 | –
CC1(NC(=O)c2ccc(C3=NO[C@@](c4cc(Cl)cc(Cl)c4)(C(F)(F)F)C3)cc2Cl)CSC1 [drawing 38] | – | – | 0 | 30 | –
